Format in all cases: cell-based, human
Experiment [1] has as its system Caco-2/HT29-MTX co-cultures. Description: Transepithelial electrical resistance (TEER) of TNFα/IFNγ-treated co-cultures given colonic batch samples. To be noted: TNFα/IFNγ stimulation. The text has this:
Caco-2, when seeded on suitable supports, spontaneously differentiate Into mature enterocyte-like cells, characterized by polarization, presence of villi, formation of domes, presence of tight junctions and vectorial transport and expression of apical brush-border enzymes (reviewed by Sambuy, Y., et al. (2005) Cell Biology and Toxicology. 21: 1-26). The mucus layer is mimicked by co-culturing Caco-2 cells with HT29-MTX cells, a mucin producing human cell line. This model is considered a useful in vitro intestinal model.
Barrier function was evaluated by measuring TEER and expression of tight junction and mucin genes in the co-culture model using TNF alpha/IFN gamma as an inflammatory insult. Inulin and sodium butyrate were used as positive controls. The test products were administered at three different concentrations. […]
Caco-2/HT29-MTX monolayers were cultured for 14 days, with three medium changes/week, until a functional cell monolayer with a transepithelial electrical resistance (TEER) was obtained. […] Before treatment, the TEER of the Caco-2/HT29-MTX monolayers was measured (0 h time point). The TEER of an empty insert was subtracted from all readings to account for the residual electrical resistance of an insert. […] Cells were treated for 48 h and the TEER was measured at 24 h (=24 h time point) and 48 h (=48 h time point). […]
TEER was measured again at 24 h and 48 h of incubation. […]

Another experiment has as its system claudin-1. The experiment in a line: qPCR gene expression of claudin-1 in Caco-2/HT29-MTX co-culture. To be noted: 48 h; compared to the TNFα/IFNγ control. The method, then: (§1) Caco-2/HT29-MTX monolayers were cultured for 14 days, with three medium changes/week, until a functional cell monolayer with a transepithelial electrical resistance (TEER) was obtained. Cells were maintained in Dulbecco's Modified Eagle Medium (DMEM) containing glucose and glutamine and supplemented with HEPES and 20% (v/v) heat-inactivated (HI) fetal bovine serum (FBS). Before treatment, the TEER of the Caco-2/HT29-MTX monolayers was measured (0 h time point). The TEER of an empty insert was subtracted from all readings to account for the residual electrical resistance of an insert. The apical compartment (containing the Caco-2/HT29-MTX cells) was filled with sterile-filtered (0.22 μm) colonic batch suspensions. […] Cells were treated for 48 h and the TEER was measured at 24 h (=24 h time point) and 48 h (=48 h time point). […]
(§2) After 48 h, cells were lysed in RNA lysis buffer, centrifuged and the […] collected. qPCR is performed for tight junction genes (claudin-1, -2, -3 and -4, and occludin) and mucin genes (mucin 3); 2 housekeeping genes were Included. […] Mucins can be measured as disclosed for example in Leteutre, E. et al, Biology of the Cell 96 (2004) 145-151. Mucin turnover can be assessed as described for example in Schneider, H. et al, Nature Scientific Reports | (2018) 8:5760 | DOI:10.1038/s41598-018-24148-x. […]
Background: Real-time PCR tracks product formation cycle by cycle.

The test system of another experiment is claudin-3. The experiment in a line: qPCR gene expression of claudin-3 in Caco-2/HT29-MTX co-culture. The conditions noted are these: 48 h; compared to the TNFα/IFNγ control. The method, then:
as §1, §2

A further experiment relates to claudin-4. The experiment in a line: qPCR gene expression of claudin-4 in Caco-2/HT29-MTX co-culture. To be noted: 48 h; compared to the TNFα/IFNγ control. The method, then: as §1, §2
Another experiment has as its system occludin. The experiment in a line: qPCR gene expression of occludin in Caco-2/HT29-MTX co-culture. The conditions noted are these: 48 h; compared to the TNFα/IFNγ control. How it is done: as §1, §2
The next experiment relates to claudin-2. Description: qPCR gene expression of claudin-2 in Caco-2/HT29-MTX co-culture. To be noted: 48 h; compared to the TNFα/IFNγ control. How it is done: as §1, §2
A further experiment relates to mucin-3. Description: qPCR gene expression of mucin-3 in Caco-2/HT29-MTX co-culture. To be noted: 48 h; compared to the TNFα/IFNγ control. The method, then: as §1, §2

We go through 1 compound from patent publication US20220323390A1, “DIETARY SUPPLEMENT TO PROMOTE GUT HEALTH” (TERRAGENICS NUTRITION, INC., priority 2019, published 2022).

Take `CCCC(=O)[O-].[Na+]` [Sodium butyrate]: the “decrease in TEER” value in experiment [1] (24 h of incubation) is given as “approximately 80%”. Moreover, in experiment [1] (48 h of incubation), the “TEER relative to initial value” is on record as “increased the TEER above its initial value”. Further, in the experiment on claudin-1, the “expression of claudin-1” value was “No effect”. The “expression of claudin-3” value with claudin-3 is listed as “increased the expression”. Moreover, the “expression of claudin-4” value in the experiment on claudin-4 is on record as “increased the expression”. The expression of occludin entry in the experiment with occludin is given as “increased the expression”. Further, in the experiment with claudin-2, the “expression of claudin-2” value is “decreased the expression”. Also, the “expression of mucin-3” value in the experiment with mucin-3 is reported as “strongly increased the expression”.
